In the assay the target is α7 nAChR subtype (Rattus norvegicus, UniProt Q05941). The class given is binding. The settings on record: read-out: KD of radioligand.

In general, Kd refers to a measure of binding affinity in units of concentration.

Chain of α7 nAChR subtype (Q05941 23-502 limits assumed): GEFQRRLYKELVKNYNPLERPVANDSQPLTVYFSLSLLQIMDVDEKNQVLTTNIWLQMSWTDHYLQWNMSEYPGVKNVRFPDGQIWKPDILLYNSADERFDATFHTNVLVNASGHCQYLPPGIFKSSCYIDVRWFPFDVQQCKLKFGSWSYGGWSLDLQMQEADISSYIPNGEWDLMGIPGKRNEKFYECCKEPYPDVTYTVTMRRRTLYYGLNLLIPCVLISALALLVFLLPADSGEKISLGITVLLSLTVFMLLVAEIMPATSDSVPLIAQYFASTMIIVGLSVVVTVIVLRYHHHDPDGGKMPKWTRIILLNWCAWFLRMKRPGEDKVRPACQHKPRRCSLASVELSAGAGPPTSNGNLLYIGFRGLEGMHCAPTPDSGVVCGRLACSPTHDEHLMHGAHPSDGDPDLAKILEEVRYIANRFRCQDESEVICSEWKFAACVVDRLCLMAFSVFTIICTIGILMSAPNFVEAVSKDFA

As to 125I-α-Bungarotoxin [^125I-α-BTX], the dissociation constant (Kd) was found to be 1.67 nM.

(Values after patent publication US6683090B1 (priority 1999, dated 2004).)
